Data reported in patent US5521061A, “Enhancement of probe signal in nucleic acid-mediated in-situ hybridization studies” (Aprogenex, Inc., priority 1992, dated 1996).

What was measured:
[1] = tested on: Hela cells; assay: Liquid in situ hybridization with flow cytometry, DMSO plus additional compound (Example 4), 28S RNA and NR probes; format: cell-based; conditions: for 28S RNA Probe, mean LFL1: FITC 28S RNA probe, water control 6.070, average of four experiments; for NR Probe, mean LFL1: FITC NR probe (non-specific binding and autofluorescence), water control 0.137; for Signal intensity after precipitation (biphasic mixture): 10 percent compound with 9% DMSO
Text: (§1) A Coulter Profile II flow cytometer was used for flow cytometry. With FITC as the probe dye, the filter for LFL3 was a 635 nm long pass filter and the filter for LFL1 was a 540 bp filter; the excitation wavelength was 488 nm. PMT1 and PMT3 settings were adjusted as required. A typical useful setting when fluorescein is the dye moiety is to have a PMT1 setting of 1100, a PMT3 setting of 900, and color compensation (PMT1, PMT3) of 15 percent.
(§2) Liquid in Situ Cell Preparation and Hybridization Protocol
(§3) 1. Cells were fixed in solution F, then resuspended in 2x SSC.
(§4) 2. The cells were spun out of solution and resuspended in an assay solution (consisting of the hybridization cocktail HC alone or in combination with a compound or compounds being tested as an enhancer.)
(§5) 3. After 30 min. at 42° C., the cells were washed in wash solution #1 preheated to 42° C. by centrifuging them out of the assay solution.
(§6) 4. Cells were next washed in wash solution #2 preheated to 42° C.
(§7) 5. Cells were resuspended in a 1X PBS solution containing 0.002% trypan blue as a counterstain.
(§8) 6. Cells were run on a flow cytometer and a "Count vs. LFL1" histogram was generated. ("Count" refers to cell count.) This histogram was used as the basis for determining the mean LFL1.
The effect on probe signal intensity of adding, in addition to DMSO, additional compounds to the assay solution was determined in an in situ liquid hybridization assay. The data was analyzed by flow cytometry.
The Liquid In Situ Cell Preparation and Hybridization Protocol was followed. The cells used were Hela cells. The probes used were a 28S RNA probe (SEQ ID NO: 1) and an NR probe.
The 28S RNA probe (SEQ ID NO: 1) is a target-specific probe specific for ribosomal RNA fluorescence obtained with it represents the sum of fluorescence from target-bound probe, non-specifically bound probe and autofluorescence from cellular molecules. The NR probe (SEQ ID NO: 2) is specific for a plant nucleic acid sequence and, in the current Example, the fluorescence obtained with it represent the sum of fluorescence from non-specifically bound probe and autofluorescence.
(§9) In this experiment, the hybridization cocktail consisted of nine volumes of HC-DMSO plus one volume of additional compound. In the control sample, one volume of water replaced the one volume of additional compound. As a result, in all samples, the concentration of DMSO was 9 percent (v/v).
The ratio, 28S/NR, is the ratio of the mean LFL1 observed with the 28S RNA probe (SEQ ID NO: 1) to the mean LFL1 observed with the NR probe (SEQ ID NO: 2). The results in the "28S RNA probe" and "NR probe" columns give the mean LFL1 observed with the 28S RNA and NR probes, respectively (SEQ ID NO: 1 and SEQ ID NO: 2, respectively).

[2] = tested on: Hepg 2 cells; assay: Slide in situ hybridization, DMSO plus one additional compound (Example 2), HYR probe; format: cell-based, human; conditions: 10% (v/v) additional compound with 9% DMSO; slide rating x 0.5, water control = 2; average of four experiments
Protocol: Slide in situ Cell Preparation and Hybridization Protocol
1) Cells were suspended in a fixative (3 vol ethanol plus 1 vol methanol) and transferred to glass slides by centrifugation using a Cytospin apparatus.
2) The assay solution (consisting of the hybridization cocktail HC alone or mixed with a compound or compounds being tested as an enhancer) with the DNA probe (25 ul) was placed over the cells and covered with a coverslip.
3) The slide was heated at 90° C. for 5 minutes for DNA denaturation, then incubated at 46° C. for 30 minutes for hybridization.
4) Cells were washed once with the wash solution #1, which was equilibrated at 42° C. Then cells were washed ten times with wash solution #2, which was equilibrated at 42° C.
5) Mounting solution (50% glycerol (v/v) in 1×PBS plus the nuclear stain Hoechst, (#33258; 1 ug/ml) was placed on the cells and covered with a coverslip.
6) The hybridization signal was observed under an Olympus BH10 microscope with fluorescent capabilities using a rhodamine derivative filters (excitation wavelength of 567 nm, emission wavelength of 584 nm).
The inclusion of DMSO in an in situ assay solution increased the permeation of the nucleic acid probes into the cells and gave hybridization signal in over 95% of the cells. In this Example, we show the effect of adding, in addition to DMSO, 10 percent (v/v) of an additional compound to the assay solution. The additional compounds added were: squalane (an aliphatic alkane), dodecyl alcohol (an alcohol), beta-cyclodextrin (a sugar), isopropyl palmitate (a fatty acid ester), 1,2, propanediol (an alcohol), pyrrolidinone (a lactam) and hexamethyldisiloxane (an organic silane).
In this Example, the hybridization cocktail consisted of nine volumes of HC-DMSO plus one volume of an additional compound. In the control sample, one volume of water was added instead of one volume of additional compound. As a result, in all samples, the concentration of DMSO in the cocktail was 9 percent (v/v).
The Slide In Situ Cell Preparation and Hybridization protocol was followed. The cells used were Hepg 2 cells. The probe used was an HYR probe specific for human Y chromosome α-satellite DNA repeated sequences; at its 5' end, via an Aminolink linker molecule, the probe was linked to a Texas Red moiety. A signal intensity of 4 was assigned to the slide in which the assay solution was HC plus 10% DMSO (control slide) and all other slides were rated 1, 2, 3 or 4 in comparison to the control slide, depending on whether the intensity was 1, 2, 3, or 4 times that of the control slide, respectively.
The results are an average of four independent experiments.

[3] = Precipitation of additional compound from the hybridization cocktail (Example 4); format: physicochemical; conditions: 10 percent in hybridization cocktail (HC-DMSO)
Text: as §9

[4] = tested on: Human female white blood cells (karyotype XX); assay: Signal enhancers in the mounting solution after in situ hybridization (Example 6), HXR probes, fluorescent microscope; format: cell-based; conditions: one volume compound plus 9 volumes mounting solution; rhodamine HXR probes; water control = 1
Protocol: After the in situ hybridization step, the cells were washed and then modified mounting solution was added and cells were observed under the microscope for fluorescence signal. Modified mounting solution was 9 volumes of mounting solution and one volume of additional compound, which was the compound being tested for its ability to be a signal enhancer. Mounting solution consisted of 0.1% 1,4 diphenylamine (antifade) in 50% glycerol (v/v), and nuclear stain Hoechst (#33258; 1 ug/ml).
Human female white blood cells (karyotype XX) were hybridized at 85° C. for 15 minutes with female chromosome HXR probes labelled with a rhodamine fluor. Cells were washed with wash buffers #1 and #2, and then suspended in a modified mounting solution. The additional compound in the modified mounting solution was varied; as a control, water was used as the additional compound. The signal intensity was observed under the fluorescent microscope.

[5] = tested on: α-satellite DNA; assay: Liquid in situ hybridization with flow cytometry, DMSO plus squalane plus additional compound (Example 5), α-satellite DNA and NR probes; format: cell-based
Text: as §1, §2, §3, §4, §5, §6, §7, §8
The Liquid In Situ Cell Preparation and Hybridization Protocol was followed.
The "α-satellite" DNA probe is a target specific probe specific α-satellite DNA. Fluorescence obtained with it represents the sum of fluorescence from target-bound probe, non-specifically bound probe and autofluorescence from cellular molecules.
The effect of a combination of DMSO and squalane on the probe signal was measured as was that combination further enhanced with a third compound.
In this Example, in all but two cases, the hybridization cocktail consisted of 9 volumes of HC-DMSO, a half volume of squalane, and a half volume of an additional compound. In one case, the additional compound was replaced by water, so that the hybridization compound consisted of 9 volumes of HC-DMSO, a half volume of squalane, and a half volume of water. In the control sample, the cocktail consisted of nine volumes of HC-DMSO and one volume of water. As a result, in all samples, there was 9 percent DMSO (v/v). When present, squalane was present at 5 percent. When present, the additional compound was present at 5%.
The ratio, α-SAT/NR, is the ratio of the mean LFL1 for the α-satellite DNA probe ([…]) to the mean LFL1 for the NR probe.

[6] = 10% additional compound with 9% DMSO

## CCCCCCCC/C=C\CCCCCCCC(=O)O [oleic acid]
[1]; [6]
  28S RNA Probe, mean LFL1: 3.643
  NR Probe, mean LFL1: 0.142
[1]; 10% additional compound with 9% DMSO, water control 44
  Ratio 28S RNA/NR (ratio of mean LFL1): 26
[2]
  Fluorescent signal (Scale of 1 to 4): 2

## CCCCCCCC/C=C\CCCCCCCCO [oleyl alcohol]
[3]
  Precipitation from solution: precipitation from solution
[1]; [6]
  28S RNA Probe, mean LFL1: 0.731
  NR Probe, mean LFL1: 0.136
[1]
  Signal intensity after precipitation (biphasic mixture): markedly decreased
[2]
  Fluorescent signal (Scale of 1 to 4): 1.5
[4]
  Signal Intensity Scale of 1 to 4: 3

## CC(C)CCCC(C)CCCC(C)CCCCC(C)CCCC(C)CCCC(C)C (stereo not shown) [squalane]
[5]; 5% squalane with 9% DMSO, water instead of additional compound, DMSO-only control 0.175
  NR Probe, mean LFL1: 0.125
[5]; 5% squalane with 9% DMSO, water instead of additional compound, DMSO-only control 3.829
  α-SAT Probe, mean LFL1: 4.604
[5]; 5% squalane with 9% DMSO, water instead of additional compound, DMSO-only control 22
  Ratio α-SAT/NR (ratio of mean LFL1): 37
[5]; squalane plus DMSO
  Increase of DNA probe signal intensity compared to DMSO alone: 1.68 fold
[3]
  Precipitation from solution: precipitation from solution
[1]; [6]
  28S RNA Probe, mean LFL1: 0.611
  NR Probe, mean LFL1: 0.123
[1]
  Signal intensity after precipitation (biphasic mixture): markedly decreased
[2]
  Fluorescent signal (Scale of 1 to 4): 2
[4]
  Signal Intensity Scale of 1 to 4: 3

## CC(C)=CCC/C(C)=C/CC/C(C)=C/CC/C=C(\C)CC/C=C(\C)CCC=C(C)C [squalene]
[4]
  Signal Intensity Scale of 1 to 4: 3

## hydroxypropylcyclodextrin
[4]
  Signal Intensity Scale of 1 to 4: 2
